For test [1], the target named is T1, human MCHR1 (Homo sapiens, UniProt Q99705).
T1 construct: expressed in transfected cells; host or cells: CHO cell clone 57 (membrane fraction)
Kind of test: Human MCH receptor 1 (MCHR1) binding inhibitory activity, [125I]-MCH(4-19) binding assay with MCHR1-expressing CHO cellular membrane fraction. Conditions: test compound 0.1 μM, human MCHR1-expressing CHO cell membrane, read-out: Binding inhibition rate % (0.1 μM). How it is done:
Using human MCHR1(=SLC-1 receptor)-expressing CHO cell clone 57 described in WO01/82925, MCHR1-expressing CHO cellular membrane fractions were prepared by the following method. […] Homogenate buffer (10 mL, 10 mM NaHCO3, 5 mM EDTA, pH 7.5, 0.5 mM PMSF (phenylmethylsulfonyl fluoride), 20 mg/L leupeptin, 4 mg/L E-64, 1 mg/L pepstatin A) was added to the pellets of the cells and, using Polytron Homogenizer, the mixture was homogenated. The supernatant obtained after centrifugation at 400×g for 10 min was further centrifuged at 100,000×g for 1 hr to give precipitate of the membrane fraction. The precipitate were suspended in 2 mL of assay buffer [20 mM Tris-HCl (pH 7.5), 5 mM EDTA, 0.5 mM PMSF, 20 mg/L leupeptin, 4 mg/L E-64, 1 mg/L pepstatin A]. The membrane fractions were suspended in assay buffer to a protein concentration of 2 mg/mL, and after dispensing, preserved at −80° C. and used upon thawing each time when in use. The MCHR1 ligand binding inhibitory activity of the test compound was determined as follows. An MCHR1-expressing CHO cellular membrane fraction (173 μL) diluted with an assay buffer was dispensed to a 96 well polypropylene plate (3363, Corning). […] Using a treating glass filter plate (GF/C, PerkinElmer) with polyethyleneimine, which had been previously set, the plate was suction-filtered and washed three times with washing buffer (50 mM Tris-HCl buffer pH 7.5). The glass filter plate was dried, MicroScinti0 (PerkinElmer) was added at 25 μL/well, and the resulting radioactivity was measured by TopCount liquid scintillation counter (PerkinElmer). The binding inhibition rate of the test compound was calculated by the following formula.

The target of test [2] is T1, human MCHR1. Kind of test: MCH receptor 1 antagonistic activity, Ca2+ mobilization assay in human MCHR1-expressing CHO cells (clone #4). Conditions: test compound 0.1 μM, ligand MCH(4-19) 2 nM, read-out: Inhibition rate % (0.1 μM). It is filed as cell-based. How it is done:
Measurement of MCH Receptor 1 Antagonistic Activity of Test Compound Using Ca^2+ Mobilization Assay
Using an expression vector plasmid introduced with human MCHR1 gene for expression in animal cells, human MCHR1 gene was introduced into CHO cells (CHO dhfr^−) by Lipofectamine LTX (Invitrogen). The cells were cultured in selection MEMα medium [445 mL of MEMα medium without nucleic acid and added with 5 mL of Penicillin-Streptomycin (Invitrogen) and 50 mL of dialyzed fetal bovine serum]. Colony 24 clones grown in the selection medium, which were human MCHR1 gene-expressing CHO cell candidates, were selected. […] In the following test, this human MCHR1-expressing CHO cell (clone #4) was used. An integrated dispensing function fluorometer (CellLux, PerkinElmer) was used for Ca^2+ mobilization assay. The CHO cells were sown in a 96 well plate (type 3904, Corning) with a black wall and clear well bottom at a density of 20000 cells/well, and cultured in an incubator for about 24 hr at 5% CO2, 37° C. The medium was removed, and the cells were washed with phosphate buffered saline (PBS). A Ca^2+ indicator dye reagent (DOJINDO LABORATORIES, Ca screening no-wash kit Fluo4) was added at 100 μL/well, and the dye was allowed to penetrate into the cell for 30 min in an incubator at 5% CO2, 37° C. The plate was set on a plate reader. First, a test compound solution diluted with an assay buffer [10 mM HEPES (pH 7.4), 1× assay buffer containing 0.1% BSA (DOJINDO LABORATORIES, attached to Ca screening no-wash kit Fluo4)] or DMSO solution was added at 50 μL/well, and then ligand MCH (4-19) peptide (final concentration 2 nM) diluted with assay buffer or DMSO was added at 50 μL/well, during which changes in intracellular fluorescence were measured at 2 second intervals. […]
The inhibition rates (%) of test compounds (0.1 μM) as antagonist activity measured using human MCHR1-expressing CHO cells (clone #4) are shown in the following Table 3.
(In general: Calcium assays in cells follow changes in intracellular calcium, usually with a dye or a luminescent sensor.)

T1 sequence (Q99705 whole entry): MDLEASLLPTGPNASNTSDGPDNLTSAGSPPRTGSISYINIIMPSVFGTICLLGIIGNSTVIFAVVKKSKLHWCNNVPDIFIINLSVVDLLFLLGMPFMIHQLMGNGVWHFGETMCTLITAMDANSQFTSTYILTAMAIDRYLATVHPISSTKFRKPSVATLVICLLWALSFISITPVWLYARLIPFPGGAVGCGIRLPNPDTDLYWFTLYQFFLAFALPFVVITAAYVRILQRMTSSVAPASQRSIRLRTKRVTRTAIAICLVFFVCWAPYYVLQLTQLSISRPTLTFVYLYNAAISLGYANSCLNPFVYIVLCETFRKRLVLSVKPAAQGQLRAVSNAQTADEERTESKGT

Usually inhibition stands for the share of the control response that was lost under treatment. For `Cn1c([C@H]2C[C@H]2C(C)(C)O)nc2ccc(-n3ccc4oc(-c5ccc(Cl)cc5)cc4c3=O)cc21` (racemic) [Example 4, 2-(4-Chlorophenyl)-5-(2-((1RS,2SR)-2-(2-hydroxypropan-2-yl)cyclopropyl)-1-methyl-1H-benzimidazol-6-yl)furo[3,2-c]pyridin-4(5H)-one], the inhibition at 0.1 µM on human MCHR1 [1] amounted to 91%.

`Cc1c(C2CC2)nc2ccc(-n3ccc4oc(-c5ccc(Cl)cc5)cc4c3=O)cn12` [Example 1, 2-(4-Chlorophenyl)-5-(2-cyclopropyl-3-methylimidazo[1,2-a]pyridin-6-yl)furo[3,2-c]pyridin-4(5H)-one]: the inhibition at 0.1 µM at human MCHR1 [1] came to 100%; at human MCHR1 [2], 82%. On the same counts, the results for `Cn1c(C2CC2)nc2ccc(-n3ccc4oc(-c5ccc(Cl)cc5)cc4c3=O)cc21` [Example 2, 2-(4-Chlorophenyl)-5-(2-cyclopropyl-1-methyl-1H-benzimidazol-6-yl)furo[3,2-c]pyridin-4(5H)-one] are 79% and 70%. For the molecule `Cc1c(C2CC2)nc2ccc(-n3ccc4oc(-c5ccc(Cl)cn5)cc4c3=O)cn12` [Example 3, 2-(5-Chloropyridin-2-yl)-5-(2-cyclopropyl-3-methylimidazo[1,2-a]pyridin-6-yl)furo[3,2-c]pyridin-4(5H)-one], the inhibition at 0.1 µM amounted to 74% on human MCHR1 [1] and 92% on human MCHR1 [2].

The record behind these values is patent publication US9440987B2, “Aromatic ring compound” (TAKEDA PHARMACEUTICAL COMPANY LIMITED, priority 2012, dated 2016).
